Bridge positions count the residues as written; N and C are the ends. Square brackets hold non-standard residues; d marks the D form. Peptide text beside a SMILES is read from it. I, II: the chains in the order shown. * marks the point of attachment. Palmitoyl = CCCCCCCCCCCCCCCC(=O)*; PEG3 = NCCOCCOCCOCCC(=O)O; Dap = NC[C@H](N)C(=O)O
Molecular target: T1, human MuSK (Homo sapiens, UniProt O15146)
T1 construct: DNA corresponding to the extracellular portion (amino acids 1-493) was amplified by a PCR method; made in house; host or cells: Expi293F cells
T1 sequence (O15146 24-493): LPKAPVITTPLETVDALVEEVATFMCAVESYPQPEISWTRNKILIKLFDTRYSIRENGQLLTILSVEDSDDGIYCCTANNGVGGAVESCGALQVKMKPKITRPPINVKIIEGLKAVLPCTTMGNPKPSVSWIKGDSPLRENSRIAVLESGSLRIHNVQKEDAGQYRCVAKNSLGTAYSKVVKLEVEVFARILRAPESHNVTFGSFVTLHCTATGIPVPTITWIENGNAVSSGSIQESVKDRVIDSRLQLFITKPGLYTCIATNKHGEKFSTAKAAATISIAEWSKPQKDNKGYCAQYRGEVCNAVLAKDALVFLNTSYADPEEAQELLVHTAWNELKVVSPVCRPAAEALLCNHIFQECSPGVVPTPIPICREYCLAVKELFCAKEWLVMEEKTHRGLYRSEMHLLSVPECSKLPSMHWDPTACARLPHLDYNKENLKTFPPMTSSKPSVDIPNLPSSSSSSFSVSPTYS
Assay: SPR binding activity test to human MuSK (Biacore)
Conditions: Table 5, read-out: Binding activity (KD) (nM) Human
In short: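 Extracellular domain (aa 1-493) of human MuSK, expressed as an Fc fusion in Expi293F cells, was captured on Protein G or A chips. Analytes were injected as concentration series in phosphate-buffered saline with 0.05% Tween 20, plus 0.1% DMSO for peptides. ka, kd and KD were obtained from 1:1 binding fits.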

Molecule `CCCCCCCCCCCCCCCC(=O)NCCCC[C@H](NC(=O)[C@H](CNC(=O)CCOCCOCCOCCNC(=O)CNC(=O)[C@@H]1CSCC(=O)N[C@H](Cc2ccc(O)cc2)C(=O)N2CCC[C@H]2C(=O)N[C@@H](CO)C(=O)N[C@@H](Cc2ccc(O)cc2)C(=O)N[C@@H](Cc2c[nH]cn2)C(=O)N[C@@H]([C@@H](C)O)C(=O)N[C@@H](CC(N)=O)C(=O)N[C@@H](C(C)C)C(=O)N[C@@H](C(C)C)C(=O)N[C@@H](C)C(=O)N[C@@H](CO)C(=O)N[C@@H](CC(C)C)C(=O)N[C@@H](CCCCN)C(=O)N[C@@H](CCCNC(=N)N)C(=O)N1)NC(=O)CCOCCOCCOCCNC(=O)CNC(=O)[C@@H]1CSCC(=O)N[C@H](Cc2ccc(O)cc2)C(=O)N2CCC[C@H]2C(=O)N[C@@H](CO)C(=O)N[C@@H](Cc2ccc(O)cc2)C(=O)N[C@@H](Cc2c[nH]cn2)C(=O)N[C@@H]([C@@H](C)O)C(=O)N[C@@H](CC(N)=O)C(=O)N[C@@H](C(C)C)C(=O)N[C@@H](C(C)C)C(=O)N[C@@H](C)C(=O)N[C@@H](CO)C(=O)N[C@@H](CC(C)C)C(=O)N[C@@H](CCCCN)C(=O)N[C@@H](CCCNC(=N)N)C(=O)N1)C(N)=O` [MuSK7-pal] (I: {CH2CO}-[dY]PSYHTNVVASLKRCG[PEG3][Dap]K(Palmitoyl)-NH2 / II: {CH2CO}-[dY]PSYHTNVVASLKRCG[PEG3]; amide I:18-II:C; thioether I:N-I:15, II:N-II:15) has a Kd of 0.9 nM.

Source: patent EP4722228A1, “NEW COMPOUND TARGETING MUSK AND USE THEREOF” (The University of Tokyo, priority 2023, dated 2024)
